pKi: −log10 of the molar value. Counter-ions that a name gives are not always drawn. Like-named read-outs stand apart in the source and are kept apart here.
Assays:
[1] = target: T1, human NK2 receptor (Homo sapiens, UniProt P21452); assay: Human NK2 receptor affinity: competition with [3H]-NKA for binding to CHO cell membranes
T1 sequence (P21452 1-398): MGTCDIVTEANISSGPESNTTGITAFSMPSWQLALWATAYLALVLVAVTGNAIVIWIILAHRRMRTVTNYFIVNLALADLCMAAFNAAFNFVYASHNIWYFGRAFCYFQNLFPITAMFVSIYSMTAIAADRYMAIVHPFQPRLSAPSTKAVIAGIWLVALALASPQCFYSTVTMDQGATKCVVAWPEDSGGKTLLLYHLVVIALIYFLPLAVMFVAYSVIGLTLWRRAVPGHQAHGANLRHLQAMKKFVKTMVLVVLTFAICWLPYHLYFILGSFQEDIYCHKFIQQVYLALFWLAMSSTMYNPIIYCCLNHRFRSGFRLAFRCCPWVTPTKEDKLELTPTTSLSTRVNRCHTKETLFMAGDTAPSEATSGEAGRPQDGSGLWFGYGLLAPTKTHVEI
Procedure: The affinity of the compounds of formula (I) and their salts for the human NK2 receptor can be tested in vitro by testing their ability to compete with [^3H]-NKA (neurokinin A) for binding to membranes prepared from Chinese hamster ovary cells expressing the cloned human NK2 receptor. In this method, washed Chinese hamster ovary cell membranes are prepared as described for the previous method where IM9 cells are used instead. The membranes are incubated (90 min, 25°C) with [^3H]-NKA and with a range of concentrations of the test compound. Non-specific binding was determined in the presence of 10µM NKA.
Human NK2 receptor affinity was tested in vitro by testing the ability to compete with [^3H]-NKA for binding to membranes prepared from Chinese hamster ovary cells expressing the cloned human NK2 receptor using the method set out on page 10. The pKi was then determined.
(§1) The "pKi" measurement is the negative logarithm of the molar affinity of the test compound for the receptor as determined in radioligand binding assays using standard protocols. A 1.0 log. unit difference in either the NK2 or NK3 receptor affinity figures corresponds to a 10-fold activity difference.

[2] = target: T2, NK3 receptor (Cavia porcellus, UniProt P30098); assay: NK3 receptor affinity: inhibition of [3H]-senktide binding to guinea pig cortex membranes
T2 construct: membranes from guinea pig cortex; from tissue; host or cells: guinea pig cortex membranes
T2 sequence (P30098 1-440): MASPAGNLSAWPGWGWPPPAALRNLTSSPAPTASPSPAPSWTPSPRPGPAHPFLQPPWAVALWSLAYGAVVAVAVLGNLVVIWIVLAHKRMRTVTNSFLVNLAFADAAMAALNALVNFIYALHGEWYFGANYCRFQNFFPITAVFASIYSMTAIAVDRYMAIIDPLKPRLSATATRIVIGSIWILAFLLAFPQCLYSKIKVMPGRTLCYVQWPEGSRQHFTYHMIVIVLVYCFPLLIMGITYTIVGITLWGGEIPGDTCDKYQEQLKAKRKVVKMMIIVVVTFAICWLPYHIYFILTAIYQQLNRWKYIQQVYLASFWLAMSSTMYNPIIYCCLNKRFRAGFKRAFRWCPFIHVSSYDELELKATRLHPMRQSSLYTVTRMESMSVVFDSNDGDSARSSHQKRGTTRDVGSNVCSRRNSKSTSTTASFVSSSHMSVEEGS
Procedure: The compounds of the formula (I) and their salts can be tested for NK3 receptor affinity, in vitro, by testing their ability to inhibit [^3H]-senktide binding to membranes from guinea pig cortex using the method of Guard, et al, Br.J.Pharmacol., 99, 767-773 (1990).
NK3 receptor affinity was tested, in vitro, by the method described on pages 10 and 11 by testing the ability to inhibit [^3H]-senktide binding to membranes from guinea pig cortex using the method of Guard, et al, Br.J.Pharmacol., 99, 767-773 (1990). The pKi was then determined.
as §1

[3] = In vitro metabolic stability: disappearance half-life in human liver microsomes (HLM/37); assay type: in vitro ADME; conditions: human liver microsomes HLM/37 (0.5µM cytochrome P450), test compound 1µM, 37°C, NADPH, 60 minutes
Procedure: The in vitro metabolic stability of the compounds of the formula (I) and their salts can be tested by incubating samples for 1 hour at 37°C in the presence of a "moderate activity" (re. concentrations of cytochrome p450 enzymes present) human liver microsomal preparation (prepared from human liver homogenates). The samples were analysed by HPLC at regular intervals during this one hour period and the half-life (t½) determined (in minutes).
The metabolic stability of the compounds was determined in vitro by the method described on page 11 according to the following experimental protocol.
Transplant-quality human liver tissue was obtained from the International Institute for the Advancement of Medicine (Exton, PA). The donors ranged in age from 26 to 65 years old and included 3 males and 3 females. Hepatic microsomes were prepared from individual human livers by the process of differential centrifugation. Briefly, the liver tissue was homogenised in 50mM Tris HCI (pH 7.4) containing 250mM sucrose and then centrifuged at 9,000G for 20 minutes to remove the cell debris and nuclear fraction. The supernatant layer was removed and further centrifuged at 105,000G for 60 minutes to pellet the microsomal fraction. […] The cytochrome P450 content was determined using the method of Omura, T., Sato, R., J. Biol. Chem., 239, 2379-2385 (1964) and the protein concentration was determined using the method of Lowry et al., J. Biol. Chem., 193, 265-275 (1951), with bovine serum albumin as the protein standard.
The metabolic activities of the 6 major drug metabolising cytochrome P450 enzymes were determined for HLM/37 and compared to values obtained from a bank of individual human livers (n = 19). […]
Aliquots (100µl) were removed from the incubation at 0, 3, 5, 10, 15, 20, 30, 45 and 60 minutes after the addition of NADPH. […] After centrifugation 150µl aliquots were removed and 120µl of each of these analysed by HPLC on a Hypersil HS C18 5µ column (50x4.6mm) with a mobile phase of methanol:water (90:10, by volume) containing 2mM ammonium acetate. […]

SMILES	pKi [1]	pKi [2]	half-life at 1 µM [3] [min]	Ki ([1]; [3H]-NKA, membranes from Chinese hamster ovary cells expressing the cloned human NK2 receptor, 90 min, 25°C, read-out: pKi (NK2) (converted)) [µM]	Ki ([2]; [3H]-senktide, membranes from guinea pig cortex, read-out: pKi (NK3) (converted)) [µM]
CS(=O)(=O)N1CCC(C2CN(CC[C@]3(c4ccc(Cl)c(Cl)c4)CCCN(C(=O)c4ccccc4)C3)C2)CC1 [Example 6, 3(S)-1-Benzoyl-3-(3,4-dichlorophenyl)-3-{2-[3-(1-methylsulphonyl-4-piperidinyl)azetidin-1-yl]ethyl}piperidine hydrochloride]	8.30	7.40	53	–	–
CS(=O)(=O)N1CC(C2CCN(CC[C@]3(c4ccc(Cl)c(Cl)c4)CCCN(C(=O)c4ccccc4)C3)CC2)C1 [Example 10, 3(S)-1-Benzoyl-3-(3,4-dichlorophenyl)-3-{2-[4-(1-methylsulfonylazetidin-3-yl)piperidin-1-yl]ethyl}piperidine]	8.30	7.70	32	–	–
O=C(c1ccccc1)N1CCC[C@](CCN2CCC(C3CCOCC3)CC2)(c2ccc(Cl)c(Cl)c2)C1 [Example 2]	–	–	28	0.00631	0.0631

From patent EP0992493A1, “Substituted benzoylpiperidine derivatives and their use as Neurokinin antagonists” (PFIZER INC., priority 1998, dated 2000)
